The source made the active and inactive calls. No cut-off for these calls is given here.
Columns and labels:
[1] = Inhibition of human recombinant CK1 by radiometric kinase assay
HCC827 [2] = test: Antitumor activity against human HCC827 cells xenografted in BALB/c mouse assessed as reduction tumor volume at 20 mg/kg, po qd; format: functional, organism-based; set-up: dose 20 mg/kg
Mus musculus [3] = test: Inhibition of EGFR phosphorylation in human NCI-H1975 cells xenografted in BALB/c mouse at 50 mg/kg/day, po for 10 days by immunohistochemistry; format: functional, organism-based
[4] = Binding affinity to […] EGFR L747-S752del, Sins mutant by KINOMEscan kinase binding assay
[5] = molecular target: Serine/threonine-protein kinase pim-2 (Homo sapiens, UniProt Q9P1W9); test: Inhibition of human recombinant PIM2 by radiometric kinase assay
[6] = Binding affinity to […] EGFR […] mutant by KINOMEscan kinase binding assay
FaDu = test: Cytotoxicity against human FADU cells incubated for 72 hrs by MTT assay; format: functional, cell-based
[7] = molecular target: Receptor tyrosine-protein kinase erbB-4 (Homo sapiens, UniProt Q15303); test: Inhibition of human recombinant ERBB4 by radiometric kinase assay
[8] = molecular target: MAP kinase-interacting serine/threonine-protein kinase 1 (Homo sapiens, UniProt Q9BUB5); test: Inhibition of human recombinant MNK1 by radiometric kinase assay
Sequence of MAP kinase-interacting serine/threonine-protein kinase 1 (Q9BUB5 whole entry): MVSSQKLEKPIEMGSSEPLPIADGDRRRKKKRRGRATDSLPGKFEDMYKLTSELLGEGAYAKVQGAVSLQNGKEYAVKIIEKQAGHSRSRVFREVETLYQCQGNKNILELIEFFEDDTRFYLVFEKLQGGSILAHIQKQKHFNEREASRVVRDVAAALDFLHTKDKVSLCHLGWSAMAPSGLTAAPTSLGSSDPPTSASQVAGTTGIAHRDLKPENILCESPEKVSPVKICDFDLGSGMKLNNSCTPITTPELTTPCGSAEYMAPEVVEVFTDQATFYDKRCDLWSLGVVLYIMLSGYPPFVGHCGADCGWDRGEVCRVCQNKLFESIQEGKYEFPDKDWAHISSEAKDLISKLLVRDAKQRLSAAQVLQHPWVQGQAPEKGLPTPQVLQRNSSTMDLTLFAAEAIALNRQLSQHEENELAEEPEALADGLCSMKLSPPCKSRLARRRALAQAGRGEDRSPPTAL

[9] = molecular target: Protein kinase C theta type (Homo sapiens, UniProt Q04759); test: Inhibition of human recombinant PKCtheta by radiometric kinase assay
[10] = molecular target: Hepatocyte growth factor receptor (Homo sapiens, UniProt P08581); test: Inhibition of human recombinant MET by radiometric kinase assay
Sequence of Hepatocyte growth factor receptor (P08581 whole entry): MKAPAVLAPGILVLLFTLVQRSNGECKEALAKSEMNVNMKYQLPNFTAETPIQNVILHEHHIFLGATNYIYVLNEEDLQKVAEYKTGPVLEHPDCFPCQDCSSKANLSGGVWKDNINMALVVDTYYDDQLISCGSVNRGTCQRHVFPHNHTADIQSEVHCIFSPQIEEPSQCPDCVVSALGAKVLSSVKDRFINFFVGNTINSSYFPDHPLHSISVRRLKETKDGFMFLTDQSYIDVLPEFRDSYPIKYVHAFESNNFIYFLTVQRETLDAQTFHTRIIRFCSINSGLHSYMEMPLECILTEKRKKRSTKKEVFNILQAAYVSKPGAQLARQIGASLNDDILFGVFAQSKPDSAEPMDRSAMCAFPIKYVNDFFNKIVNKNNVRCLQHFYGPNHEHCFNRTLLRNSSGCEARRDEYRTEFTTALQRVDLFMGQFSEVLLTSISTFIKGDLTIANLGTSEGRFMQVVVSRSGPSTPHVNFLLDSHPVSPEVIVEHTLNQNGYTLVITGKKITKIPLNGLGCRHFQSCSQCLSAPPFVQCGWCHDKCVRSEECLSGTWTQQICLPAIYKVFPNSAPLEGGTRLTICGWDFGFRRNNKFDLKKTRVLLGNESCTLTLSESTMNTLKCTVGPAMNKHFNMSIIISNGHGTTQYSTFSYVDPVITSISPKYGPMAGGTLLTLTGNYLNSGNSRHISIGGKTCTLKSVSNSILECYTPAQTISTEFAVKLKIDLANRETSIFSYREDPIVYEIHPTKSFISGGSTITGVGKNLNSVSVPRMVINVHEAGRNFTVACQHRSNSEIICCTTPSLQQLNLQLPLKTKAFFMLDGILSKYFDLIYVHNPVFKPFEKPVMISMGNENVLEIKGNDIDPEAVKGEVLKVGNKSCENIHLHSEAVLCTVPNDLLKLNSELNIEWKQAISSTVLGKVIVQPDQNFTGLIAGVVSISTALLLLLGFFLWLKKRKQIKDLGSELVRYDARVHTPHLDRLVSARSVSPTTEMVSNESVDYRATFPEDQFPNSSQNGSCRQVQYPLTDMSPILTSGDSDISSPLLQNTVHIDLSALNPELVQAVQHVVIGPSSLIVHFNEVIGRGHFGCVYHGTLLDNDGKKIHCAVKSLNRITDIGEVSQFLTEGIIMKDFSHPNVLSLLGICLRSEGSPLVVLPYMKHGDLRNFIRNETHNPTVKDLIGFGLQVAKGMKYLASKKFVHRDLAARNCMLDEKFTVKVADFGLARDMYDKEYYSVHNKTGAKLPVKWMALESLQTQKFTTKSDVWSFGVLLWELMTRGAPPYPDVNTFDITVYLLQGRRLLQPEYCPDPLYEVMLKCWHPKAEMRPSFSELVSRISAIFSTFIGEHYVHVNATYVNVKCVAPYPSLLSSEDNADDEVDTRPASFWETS

MDA-MB-231 = test: Cytotoxicity against human MDA-MB-231 cells incubated for 72 hrs by MTT assay; format: functional, cell-based; details: MDA-MB-231, 72 h
[11] = molecular target: Mitogen-activated protein kinase 12 (Homo sapiens, UniProt P53778); test: Inhibition of human recombinant p38gamma by radiometric kinase assay
[12] = molecular target: Glycogen synthase kinase-3 beta (Homo sapiens, UniProt P49841); test: Inhibition of human recombinant GSK3beta by radiometric kinase assay
[13] = Cytotoxicity against human HCC827 cells incubated for 72 hrs by MTT assay; format: functional, cell-based; details: HCC827, 72 h
[14] = Tmax in Sprague-Dawley rat at 20 mg/kg, po; format: ADME, organism-based; set-up: dose 20 mg/kg, route oral; details: in vivo
[15] = molecular target: Macrophage-stimulating protein receptor (Homo sapiens, UniProt Q04912); test: Inhibition of human recombinant MST1R by radiometric kinase assay
Sequence of Macrophage-stimulating protein receptor (Q04912 25-304 limits assumed): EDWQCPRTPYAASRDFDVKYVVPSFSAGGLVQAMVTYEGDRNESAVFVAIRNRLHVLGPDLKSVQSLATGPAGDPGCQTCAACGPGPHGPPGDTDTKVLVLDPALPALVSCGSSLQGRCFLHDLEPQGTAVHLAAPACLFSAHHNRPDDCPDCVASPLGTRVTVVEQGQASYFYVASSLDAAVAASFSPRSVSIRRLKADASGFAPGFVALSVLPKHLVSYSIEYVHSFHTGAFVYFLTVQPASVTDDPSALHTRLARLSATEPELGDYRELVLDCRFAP
Sequence of Macrophage-stimulating protein receptor (Q04912 310-1400 limits assumed): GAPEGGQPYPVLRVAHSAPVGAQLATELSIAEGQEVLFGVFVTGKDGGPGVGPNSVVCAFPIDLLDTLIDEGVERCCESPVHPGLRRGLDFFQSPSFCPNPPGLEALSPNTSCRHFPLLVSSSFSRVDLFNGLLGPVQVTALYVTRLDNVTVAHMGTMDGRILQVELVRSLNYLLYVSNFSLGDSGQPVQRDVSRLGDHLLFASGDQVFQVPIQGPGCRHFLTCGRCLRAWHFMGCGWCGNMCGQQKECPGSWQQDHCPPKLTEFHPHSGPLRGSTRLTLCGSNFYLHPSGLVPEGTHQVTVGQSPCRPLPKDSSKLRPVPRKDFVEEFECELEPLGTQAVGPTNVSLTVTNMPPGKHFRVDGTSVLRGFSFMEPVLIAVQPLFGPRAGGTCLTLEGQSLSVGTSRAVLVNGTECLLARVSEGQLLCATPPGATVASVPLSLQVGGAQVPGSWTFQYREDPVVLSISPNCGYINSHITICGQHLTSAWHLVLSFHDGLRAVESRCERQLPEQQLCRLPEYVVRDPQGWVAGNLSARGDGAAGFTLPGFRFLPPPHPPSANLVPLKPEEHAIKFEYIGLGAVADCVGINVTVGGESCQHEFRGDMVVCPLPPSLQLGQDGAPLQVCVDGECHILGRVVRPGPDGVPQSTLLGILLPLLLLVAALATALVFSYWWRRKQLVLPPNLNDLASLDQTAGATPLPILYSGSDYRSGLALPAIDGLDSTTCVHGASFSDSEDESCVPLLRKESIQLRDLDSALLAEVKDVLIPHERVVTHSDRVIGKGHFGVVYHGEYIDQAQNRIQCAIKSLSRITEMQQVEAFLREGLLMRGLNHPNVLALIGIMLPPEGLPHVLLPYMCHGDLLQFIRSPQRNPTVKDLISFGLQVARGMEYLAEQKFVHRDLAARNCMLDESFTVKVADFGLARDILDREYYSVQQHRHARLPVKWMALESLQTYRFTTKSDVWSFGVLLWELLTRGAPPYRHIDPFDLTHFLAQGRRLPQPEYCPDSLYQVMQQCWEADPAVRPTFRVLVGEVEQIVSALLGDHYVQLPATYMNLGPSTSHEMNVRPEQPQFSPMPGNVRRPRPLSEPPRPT

[16] = molecular target: Proto-oncogene tyrosine-protein kinase Src (Homo sapiens, UniProt P12931); test: Inhibition of human recombinant SRC by radiometric kinase assay
[17] = Binding affinity to […] EGFR 747-E749del, A750P mutant by KINOMEscan kinase binding assay
[18] = Cmax in Sprague-Dawley rat at 20 mg/kg, po; format: ADME, organism-based; set-up: dose 20 mg/kg, route oral; details: in vivo
HepG2 = test: Cytotoxicity against human HepG2 cells incubated for 72 hrs by MTT assay; format: functional, cell-based; details: HepG2, 72 h
[19] = molecular target: ALK tyrosine kinase receptor (Homo sapiens, UniProt Q9UM73); test: Inhibition of human recombinant ALK by radiometric kinase assay
[20] = AUC (0 to 24 hrs) in Sprague-Dawley rat at 20 mg/kg, po; format: ADME, organism-based; set-up: time < 24 hr, dose 20 mg/kg, route oral; details: plasma
[21] = Inhibition of human recombinant CaMK2 by radiometric kinase assay
NCI-H1975 [22] = test: Antitumor activity against human NCI-H1975 cells xenografted in BALB/c mouse assessed as inhibition of tumor growth at 50 mg/kg, po qd; format: functional; details: read-out: TGI
NCI-H1975 [23] = test: Antitumor activity against human NCI-H1975 cells xenografted in BALB/c mouse assessed as inhibition of tumor growth administered orally once daily; format: functional, cell-based
[24] = molecular target: Insulin-like growth factor 1 receptor (Homo sapiens, UniProt P08069); test: Inhibition of human recombinant IGF1R by radiometric kinase assay
[25] = molecular target: MAP kinase-activated protein kinase 2 (Homo sapiens, UniProt P49137); test: Inhibition of human recombinant MK2 by radiometric kinase assay
[26] = molecular target: Serine/threonine-protein kinase WNK1 (Homo sapiens, UniProt Q9H4A3); test: Inhibition of human recombinant WNK1 by radiometric kinase assay
Mus musculus [27] = test: Inhibition of EGFR phosphorylation in human HCC827 cells xenografted in BALB/c mouse at 1 mg/kg/day, po for 3 days by immunohistochemistry; format: functional, organism-based
[28] = molecular target: Receptor tyrosine-protein kinase erbB-2 (Homo sapiens, UniProt P04626); test: Inhibition of human recombinant ERBB2 by radiometric kinase assay
[29] = Inhibition of human recombinant S6K by radiometric kinase assay
[30] = Half life in Sprague-Dawley rat at 20 mg/kg, po; format: ADME, organism-based; set-up: dose 20 mg/kg, route oral; details: in vivo
[31] = molecular target: Mitogen-activated protein kinase 1 (Homo sapiens, UniProt P28482); test: Inhibition of human recombinant ERK2 by radiometric kinase assay
[32] = molecular target: Mitogen-activated protein kinase 9 (Homo sapiens, UniProt P45984); test: Inhibition of human recombinant JNK2 by radiometric kinase assay
[33] = molecular target: Interleukin-1 receptor-associated kinase 4 (Homo sapiens, UniProt Q9NWZ3); test: Inhibition of human recombinant IRAK4 by radiometric kinase assay
Sequence of Interleukin-1 receptor-associated kinase 4 (Q9NWZ3 whole entry): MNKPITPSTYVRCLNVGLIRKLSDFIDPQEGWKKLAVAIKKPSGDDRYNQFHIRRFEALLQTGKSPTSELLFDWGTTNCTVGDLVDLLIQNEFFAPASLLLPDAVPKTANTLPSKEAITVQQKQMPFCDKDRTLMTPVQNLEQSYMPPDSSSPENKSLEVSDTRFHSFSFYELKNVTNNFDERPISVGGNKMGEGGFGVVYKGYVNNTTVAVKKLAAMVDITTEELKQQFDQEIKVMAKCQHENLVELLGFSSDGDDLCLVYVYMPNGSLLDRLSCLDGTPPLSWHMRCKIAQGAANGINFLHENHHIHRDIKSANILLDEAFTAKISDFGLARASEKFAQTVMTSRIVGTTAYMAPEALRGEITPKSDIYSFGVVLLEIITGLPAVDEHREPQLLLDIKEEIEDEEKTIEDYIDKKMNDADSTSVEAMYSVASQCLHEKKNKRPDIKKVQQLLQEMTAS

NCI-H1975 [34] = test: Cytotoxicity against human NCI-H1975 cells incubated for 72 hrs by MTT assay; format: functional, cell-based; details: NCI-H1975, 72 h
[35] = molecular target: Mitogen-activated protein kinase 14 (Homo sapiens, UniProt Q16539); test: Inhibition of human recombinant p38alpha by radiometric kinase assay
[36] = molecular target: Serine/threonine-protein kinase PLK1 (Homo sapiens, UniProt P53350); test: Inhibition of human recombinant PLK1 by radiometric kinase assay
Sequence of Serine/threonine-protein kinase PLK1 (P53350 whole entry): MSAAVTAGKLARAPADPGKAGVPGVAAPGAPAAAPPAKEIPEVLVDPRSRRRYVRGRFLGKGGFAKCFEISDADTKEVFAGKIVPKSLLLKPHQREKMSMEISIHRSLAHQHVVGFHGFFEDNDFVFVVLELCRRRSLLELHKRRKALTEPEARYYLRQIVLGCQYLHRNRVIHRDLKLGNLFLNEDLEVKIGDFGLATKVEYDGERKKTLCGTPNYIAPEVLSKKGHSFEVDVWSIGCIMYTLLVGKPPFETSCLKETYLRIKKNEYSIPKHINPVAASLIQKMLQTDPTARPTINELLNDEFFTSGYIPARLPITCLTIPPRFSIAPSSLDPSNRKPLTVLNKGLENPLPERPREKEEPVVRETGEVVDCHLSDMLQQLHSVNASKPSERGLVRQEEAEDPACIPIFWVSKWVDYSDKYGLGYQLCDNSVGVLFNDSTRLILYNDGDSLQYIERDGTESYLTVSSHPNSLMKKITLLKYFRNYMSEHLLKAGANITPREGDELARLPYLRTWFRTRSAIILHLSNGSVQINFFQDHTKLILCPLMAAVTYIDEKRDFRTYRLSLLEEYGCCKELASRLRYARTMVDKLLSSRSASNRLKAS

[37] = molecular target: Mast/stem cell growth factor receptor Kit (Homo sapiens, UniProt P10721); test: Inhibition of human recombinant KIT by radiometric kinase assay
HCC827 [38] = test: Antitumor activity against human HCC827 cells xenografted in BALB/c mouse assessed as complete tumor regression at 5 mg/kg, po qd measured within 15 days compound treatment; format: functional, organism-based; set-up: dose 5 mg/kg
HCC827 [39] = test: Antitumor activity against human HCC827 cells xenografted in BALB/c mouse assessed as reduction in Ki67 expression at 1 mg/kg/day, po for 3 days by immunohistochemistry; format: functional, organism-based
NCI-H292 = test: Cytotoxicity against human NCI-H292 cells incubated for 72 hrs by MTT assay; format: functional, cell-based; details: NCI-H292, 72 h
[40] = molecular target: Serine/threonine-protein kinase N1 (Homo sapiens, UniProt Q16512); test: Inhibition of human recombinant PKN1 by radiometric kinase assay
HCC827 [41] = test: Antitumor activity against human HCC827 cells xenografted in BALB/c mouse assessed as reduction tumor volume at 1 mg/kg, po qd; format: functional, organism-based; set-up: dose 1 mg/kg
[42] = molecular target: Non-receptor tyrosine-protein kinase TYK2 (Homo sapiens, UniProt P29597); test: Inhibition of human recombinant TYK2 by radiometric kinase assay
Rattus norvegicus = test: Volume of distribution at steady state in Sprague-Dawley rat at 20 mg/kg, po; format: ADME, organism-based; set-up: dose 20 mg/kg, route oral; details: in vivo
[43] = molecular target: RAC-alpha serine/threonine-protein kinase (Homo sapiens, UniProt P31749); test: Inhibition of human recombinant PKBalpha by radiometric kinase assay
Sequence of RAC-alpha serine/threonine-protein kinase (P31749 whole entry): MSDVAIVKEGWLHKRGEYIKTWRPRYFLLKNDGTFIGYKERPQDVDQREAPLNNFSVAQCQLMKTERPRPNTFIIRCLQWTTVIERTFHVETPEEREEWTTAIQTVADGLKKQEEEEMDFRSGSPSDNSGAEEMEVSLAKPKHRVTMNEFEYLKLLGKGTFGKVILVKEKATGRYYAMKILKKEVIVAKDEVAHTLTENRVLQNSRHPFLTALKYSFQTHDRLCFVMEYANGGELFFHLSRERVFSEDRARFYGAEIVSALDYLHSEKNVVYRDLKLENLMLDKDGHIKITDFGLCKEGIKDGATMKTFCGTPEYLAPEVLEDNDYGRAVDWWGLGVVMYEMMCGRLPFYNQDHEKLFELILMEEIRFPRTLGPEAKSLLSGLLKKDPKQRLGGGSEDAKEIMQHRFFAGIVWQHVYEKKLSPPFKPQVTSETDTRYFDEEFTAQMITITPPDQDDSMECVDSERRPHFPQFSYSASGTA

CN1CCN(c2ccc(Nc3ncc4nc(Nc5ccccc5)n(C5CCCC5)c4n3)cc2)CC1
IC50 [1]: > 10 µM
TGI (HCC827 [2]): Active
inhibition (Mus musculus [3]): Active
Kd [4]: 0.0005 µM
IC50 [5]: > 10 µM
Kd [6]: 0.0005 µM
IC50 (FaDu): 0.015 µM
IC50 [7]: 0.03 µM
IC50 [8]: 6.7 µM
IC50 [9]: 3.6 µM
IC50 [10]: 6.4 µM
IC50 (MDA-MB-231): 5 µM
IC50 [11]: > 10 µM
IC50 [12]: > 10 µM
IC50 [13]: < 10 pM
Tmax [14]: 1 h
IC50 [15]: > 10 µM
IC50 [16]: 0.29 µM
Kd [17]: 0.0004 µM
Cmax [18]: 230 ng/mL
IC50 (HepG2): > 5 µM
IC50 [19]: 2.3 µM
AUC(0-t) at 24 h [20]: 2140 ng·h/mL
IC50 [21]: > 10 µM
inhibition in vivo at 50 mg/kg (NCI-H1975 [22]): 62%
TGI (NCI-H1975 [23]): Dose-dependent effect
IC50 [24]: > 10 µM
IC50 [25]: > 10 µM
IC50 [26]: > 10 µM
inhibition (Mus musculus [27]): Active
IC50 [28]: 0.06 µM
IC50 [29]: 9.4 µM
half-life [30]: 4.86 h
IC50 [31]: > 10 µM
IC50 [32]: 1.5 µM
IC50 [33]: > 10 µM
IC50 (NCI-H1975 [34]): 0.36 µM
IC50 [35]: 0.23 µM
IC50 [36]: > 10 µM
IC50 [37]: 0.54 µM
Activity (HCC827 [38]): Active
Activity (HCC827 [39]): Active
IC50 (NCI-H292): 0.045 µM
IC50 [40]: 6.1 µM
TGI (HCC827 [41]): Active
IC50 [42]: 6.7 µM
Vdss (Rattus norvegicus): 63.35 L/kg
IC50 [43]: > 10 µM
